The text below walks through data of patent publication US11760764B2, “Methods and compositions for targeting PD-L1” (Aligos Therapeutics, Inc., priority 2020, dated 2023).

Chain of PD-1/PD-L1 interaction (PDL1-6×His protein, PD1-Fc-Avi-Biotin protein) (Q9NZQ7 19-238 limits assumed): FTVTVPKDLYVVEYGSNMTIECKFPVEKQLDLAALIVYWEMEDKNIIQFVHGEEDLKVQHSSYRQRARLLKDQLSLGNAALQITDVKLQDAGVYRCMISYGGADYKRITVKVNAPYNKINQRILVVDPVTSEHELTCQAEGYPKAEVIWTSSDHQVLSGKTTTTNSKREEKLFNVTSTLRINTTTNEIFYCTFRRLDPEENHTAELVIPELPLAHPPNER

The target of one assay is T1, PD-1/PD-L1 interaction (Jurkat cells overexpressing PD-1 co-cultured with PD-L1 expressing CHO cells) (Homo sapiens, UniProt Q9NZQ7).
T1 construct: expressed in transfected cells; Jurkat cells (PD-1 and NF-AT luciferase construct)
T1 sequence (Q9NZQ7 19-290): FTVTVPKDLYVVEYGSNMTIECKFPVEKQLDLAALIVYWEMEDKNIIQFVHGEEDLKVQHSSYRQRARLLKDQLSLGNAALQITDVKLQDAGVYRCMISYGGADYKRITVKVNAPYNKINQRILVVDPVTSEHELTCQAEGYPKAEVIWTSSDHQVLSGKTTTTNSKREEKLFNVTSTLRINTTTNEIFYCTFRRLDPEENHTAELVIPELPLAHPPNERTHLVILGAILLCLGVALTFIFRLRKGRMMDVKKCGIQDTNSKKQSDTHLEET
The assay can be described thus: PD-1/PD-L1 NFAT Reporter Assay. It is filed as cell-based. The note with it: Table C-1; Jurkat/CHO co-culture, 6 hrs at 37° C., luciferase activity. The procedure: Blocking the PD-1/PD-L1 interaction will release the inhibitory signal and results in TCR signaling and NFAT-mediated luciferase activity.
CHO cells expressing surface-bound anti-CD3 antibodies and PD-L1 were first seeded overnight and treated with the compounds. Jurkat cells overexpressing PD-1 and a luciferase construct under NF-AT promoter were then immediately seeded on the monolayer of CHO cells. The co-culture was then incubated for 6 hrs at 37° C. Luciferase activity was assessed by adding the ONE-Glo reagent and measuring luminescence with a plate reader. EC50s values were determined from the fit of the dose-response curves
In turn, `COc1cc(-c2cccc(-c3cccc(-c4cc5c(c(OC)c4)[C@H](NC[C@@H]4CCC(=O)N4)CC5)c3Cl)c2Cl)cc2c1[C@H](NC[C@@H]1CCC(=O)N1)CC2` (single isomer, unassigned) [Compound L-1] showed a concentration for a half-maximal effect (EC50) of 10 to 100 nM.
As to `COc1cc(-c2cccc(-c3cccc(-c4cc5c(c(OC)c4)[C@@H](NC[C@@H]4CCC(=O)N4)CC5)c3Cl)c2Cl)cc2c1[C@@H](NC[C@@H]1CCC(=O)N1)CC2` (single isomer, unassigned) [Compound L-2], the EC50 was > 10000 nM.
On the same count and under the same terms, as for `CCOC(=O)C1CN([C@H]2CCc3cc(-c4cccc(-c5cccc(-c6cc7c(c(OC)n6)[C@@H](NC[C@@H]6CCC(=O)N6)CC7)c5Cl)c4Cl)nc(OC)c32)C1` (single isomer, unassigned) [Compound N-1A], the figure is 10 to 100 nM; as for `COc1nc(-c2cccc(-c3cccc(-c4cc5c(c(OC)n4)[C@@H](N4CC(C(=O)O)C4)CC5)c3Cl)c2Cl)cc2c1[C@@H](NC[C@@H]1CCC(=O)N1)CC2` (single isomer, unassigned) [Compound N-1B], ≤ 10 nM.
Consider `CCOC(=O)C1CN([C@H]2CCc3cc(-c4cccc(-c5cccc(-c6cc7c(c(OC)c6)[C@@H](NC[C@@H]6CCC(=O)N6)CC7)c5Cl)c4Cl)cc(OC)c32)C1` (single isomer, unassigned) [Compound N-2A], for which the “PD-1/PD-L1 NFAT Reporter Assay” value is given as “n.r”.
Consider `COc1cc(-c2cccc(-c3cccc(-c4cc5c(c(OC)c4)[C@@H](N4CC(C(=O)O)C4)CC5)c3Cl)c2Cl)cc2c1[C@@H](NC[C@@H]1CCC(=O)N1)CC2` (single isomer, unassigned) [Compound N-2B], for which the EC50 lay in the range of 100 to 1000 nM.
Regarding `CCOC(=O)C1CN([C@H]2CCc3cc(-c4cccc(-c5cccc(-c6cc7c(c(OC)c6)[C@H](NC[C@@H]6CCC(=O)N6)CC7)c5Cl)c4Cl)cc(OC)c32)C1` (single isomer, unassigned) [Compound N-3A], the EC50 is 10 to 100 nM.

The target of another assay is PD-1/PD-L1 interaction (PDL1-6×His protein, PD1-Fc-Avi-Biotin protein) (Homo sapiens, UniProt Q9NZQ7). In words: PDL1/PD1 Binding Assay. The conditions noted are these: Table C; 0.3 nM PDL1, 2.5 nM PD1; read-out: PD-1/PD-L1 PPI IC50. The procedure:
Compounds to be tested were serially diluted in DMSO, and further diluted in assay buffer (25 mM Hepes pH 7.4, 150 mM NaCl, 0.005% Tween 20, BSA 0.01%). Diluted compounds were added to the wells with final concentration of DMSO at 1%. PDL1-6×His protein was added to the wells, mixed well with compound. The plates were incubated for 30 min at room temperature. PD1-Fc-Avi-Biotin protein was added to the wells. […] After a binding time of 30 min at room temperature, Anti-6×His Acceptor beads (final concentration 20 ug/ml) were added to the wells, and the incubation continued for 1 h. Streptavidin Donor beads (final concentration 20 ug/mL) were added at reduced light. The plates were sealed with foil and incubated in the dark for additional 1 h or overnight before reading on an Envision reader. The IC50s were determined by fitting the curves using a four-parameter equation in Graphpad Prism 8.
Turning to `O=C(O)CNC1CCc2cc(-c3cccc(-c4cccc(-c5ccc6c(c5)CCC6NCC(=O)O)c4Cl)c3Cl)ccc21` (stereo not shown) [Compound A-1], the IC50 was ≤ 10 nM.
Regarding `CC(=O)NCCNC1CCc2cc(-c3cccc(-c4cccc(-c5ccc6c(c5)CCC6NCCNC(C)=O)c4Cl)c3Cl)ccc21` (stereo not shown) [Compound A-3], the IC50 is 10 to 100 nM.
On to `CC(=O)NCCNC1Cc2ccc(-c3cccc(-c4cccc(-c5ccc6c(c5)CC(NCCNC(C)=O)C6)c4Cl)c3Cl)cc2C1` (stereo not shown) [Compound A-4], for which the IC50 lay within 10 to 100 nM.
Turning to `O=C(O)CNC1Cc2ccc(-c3cccc(-c4cccc(-c5ccc6c(c5)CC(NCC(=O)O)C6)c4Cl)c3Cl)cc2C1` (stereo not shown) [Compound A-5], the IC50 was ≤ 10 nM.
With `O=C1CC[C@@H](CNC2Cc3ccc(-c4cccc(-c5cccc(-c6ccc7c(c6)CC(NC[C@@H]6CCC(=O)N6)C7)c5Cl)c4Cl)cc3C2)N1` (stereo partly shown) [Compound A-6], the IC50 was ≤ 10 nM.
Take `O=C1CC[C@@H](CNC2Cc3ccc(-c4cccc(-c5cccc(-c6ccc7c(c6)CC(O)C7)c5Cl)c4Cl)cc3C2)N1` (stereo partly shown) [Compound A-7]: the IC50 is 100 to 1000 nM.
Consider `Clc1c(-c2ccc3c(c2)CC(N2CCOCC2)C3)cccc1-c1cccc(-c2ccc3c(c2)CC(N2CCOCC2)C3)c1Cl` (stereo not shown) [Compound A-8], for which the IC50 fell in the range of 100 to 1000 nM.
The same measure, in the same setting: as for `Clc1c(-c2ccc3c(c2)CCNC3)cccc1-c1cccc(-c2ccc3c(c2)CCNC3)c1Cl` [Compound B-1], the figure is ≤ 10 nM; as for `Clc1c(-c2ccc3c(c2)CNC3)cccc1-c1cccc(-c2ccc3c(c2)CNC3)c1Cl` [Compound B-2], 10 to 100 nM; as for `Clc1c(-c2ccc3c(n2)CCNC3)cccc1-c1cccc(-c2ccc3c(n2)CCNC3)c1Cl` [Compound B-3], 10 to 100 nM.
With `Clc1c(-c2cc3c(cn2)CNCC3)cccc1-c1cccc(-c2cc3c(cn2)CNCC3)c1Cl` [Compound B-4], the IC50 lay within 10 to 100 nM.
Still for that read-out and setting: as for `Clc1c(-c2ccc3c(n2)OCCNC3)cccc1-c1cccc(-c2ccc3c(n2)OCCNC3)c1Cl` [Compound B-5], the figure is 100 to 1000 nM; as for `N[C@H]1CCc2cc(-c3cccc(-c4cccc(-c5ccc6c(c5)CC[C@@H]6N)c4Cl)c3Cl)ccc21` [Compound B-7], 100 to 1000 nM; as for `N[C@@H]1CCc2cc(-c3cccc(-c4cccc(-c5ccc6c(c5)CC[C@H]6N)c4Cl)c3Cl)ccc21` [Compound B-8], 100 to 1000 nM.
With `CC1(C)CNCc2ccc(-c3cccc(-c4cccc(-c5ccc6c(c5)C(C)(C)CNC6)c4Cl)c3Cl)cc21` [Compound B-9], the IC50 was 1000 to 10000 nM.
Regarding `Fc1cc(-c2cccc(-c3cccc(-c4cc(F)c5c(c4)CCNC5)c3Cl)c2Cl)cc2c1CNCC2` [Compound B-10], the IC50 fell in the range of 10 to 100 nM.
Still for that read-out and setting: as for `Clc1c(-c2ccc3c(c2)COC32CNC2)cccc1-c1cccc(-c2ccc3c(c2)COC32CNC2)c1Cl` [Compound B-12], the figure is 1000 to 10000 nM; as for `CC1Cc2cc(-c3cccc(-c4cccc(-c5ccc6c(c5)CC(C)NC6)c4Cl)c3Cl)ccc2CN1` (stereo not shown) [Compound B-13], 10 to 100 nM.
For `Cc1c(-c2cccc(-c3cccc(-c4ccc5c(c4C)CCNC5)c3Cl)c2Cl)ccc2c1CCNC2` [Compound B-14], the IC50 is 100 to 1000 nM.
For the compound `Cc1c(-c2cccc(-c3cccc(-c4ccc5c(c4C)CNCC5)c3Cl)c2Cl)ccc2c1CNCC2` [Compound B-15], the IC50 was in the range of 1000 to 10000 nM.
For `Cc1cc2c(cc1-c1cccc(-c3cccc(-c4cc5c(cc4C)CNCC5)c3Cl)c1Cl)CCNC2` [Compound B-16], the IC50 is 100 to 1000 nM.
As for `COc1cc(-c2cccc(-c3cccc(-c4cc5c(c(OC)c4)CNCC5)c3Cl)c2Cl)cc2c1CNCC2` [Compound B-17], the IC50 was 10 to 100 nM.
On the same count and under the same terms, as for `O=C(O)C[C@H](O)CN1Cc2ccc(-c3cccc(-c4cccc(-c5ccc6c(c5)CN(C[C@@H](O)CC(=O)O)C6)c4Cl)c3Cl)cc2C1` [Compound C-1], the figure is ≤ 10 nM.
In the case of `O=C(O)C[C@H](O)CN1CCc2cc(-c3cccc(-c4cccc(-c5ccc6c(c5)CCN(C[C@@H](O)CC(=O)O)C6)c4Cl)c3Cl)ccc2C1` [Compound C-2], the IC50 is ≤ 10 nM.
Consider `O=C(O)C[C@H](O)CN1CCc2nc(-c3cccc(-c4cccc(-c5ccc6c(n5)CCN(C[C@@H](O)CC(=O)O)C6)c4Cl)c3Cl)ccc2C1` [Compound C-3], for which the IC50 was in the range of 100 to 1000 nM.
Same read-out and setting: as for `O=C(O)C[C@H](O)CN1CCc2cc(-c3cccc(-c4cccc(-c5cc6c(cn5)CN(C[C@@H](O)CC(=O)O)CC6)c4Cl)c3Cl)ncc2C1` [Compound C-4], the figure is 10 to 100 nM; as for `O=C(O)C[C@H](O)CN1CCOc2nc(-c3cccc(-c4cccc(-c5ccc6c(n5)OCCN(C[C@@H](O)CC(=O)O)C6)c4Cl)c3Cl)ccc2C1` [Compound C-5], 1000 to 10000 nM.
The same measure, in the same setting: as for `O=C(O)C[C@H](O)CN1CCc2ccc(-c3cccc(-c4cccc(-c5ccc6c(c5)CN(C[C@@H](O)CC(=O)O)CC6)c4Cl)c3Cl)cc2C1` [Compound C-6], the figure is ≤ 10 nM.
The same measure, in the same setting: as for `CC1(C)CN(C[C@@H](O)CC(=O)O)Cc2ccc(-c3cccc(-c4cccc(-c5ccc6c(c5)C(C)(C)CN(C[C@@H](O)CC(=O)O)C6)c4Cl)c3Cl)cc21` [Compound C-7], the figure is 100 to 1000 nM.
On to `O=C(O)C[C@H](O)CN1CCc2cc(-c3cccc(-c4cccc(-c5cc(F)c6c(c5)CCN(C[C@@H](O)CC(=O)O)C6)c4Cl)c3Cl)cc(F)c2C1` [Compound C-8], for which the IC50 was ≤ 10 nM.
`CC1Cc2cc(-c3cccc(-c4cccc(-c5ccc6c(c5)CC(C)N(C[C@@H](O)CC(=O)O)C6)c4Cl)c3Cl)ccc2CN1C[C@@H](O)CC(=O)O` (stereo partly shown) [Compound C-9]: the IC50 is ≤ 10 nM.
On the same count and under the same terms, as for `CCOC(=O)CN[C@H]1CCc2cc(-c3cccc(-c4cccc(-c5ccc6c(c5)CC[C@@H]6NCC(=O)OCC)c4Cl)c3Cl)ccc21` [Compound F-1], the figure is 100 to 1000 nM; as for `O=C(O)CN1CCc2ccc(-c3cccc(-c4cccc(-c5ccc6c(c5)CN(CC(=O)O)CC6)c4Cl)c3Cl)cc2C1` [Compound H-1], ≤ 10 nM.
On to `O=C(O)CN1CCc2cc(-c3cccc(-c4cccc(-c5ccc6c(c5)CCN(CC(=O)O)C6)c4Cl)c3Cl)ccc2C1` [Compound H-2], for which the IC50 is ≤ 10 nM.
Turning to `O=C(O)CN1CCC12CCc1cc(-c3cccc(-c4cccc(-c5ccc6c(c5)CCC5(CCN5CC(=O)O)C6)c4Cl)c3Cl)ccc1C2` (stereo not shown) [Compound H-3], the IC50 was in the range of 100 to 1000 nM.
On to `O=C(O)CN1CC2(C1)OCc1cc(-c3cccc(-c4cccc(-c5ccc6c(c5)COC65CN(CC(=O)O)C5)c4Cl)c3Cl)ccc12` [Compound H-4], for which the IC50 fell in the range of 10 to 100 nM.
Still for that read-out and setting: as for `CC(=O)N1CC(N2CCOc3nc(-c4cccc(-c5cccc(-c6ccc7c(n6)OCCN(C6CN(C(C)=O)C6)C7)c5Cl)c4Cl)ccc3C2)C1` [Compound I-1], the figure is > 10000 nM; as for `N[C@@H](CC(=O)O)C(=O)N1CCc2ccc(-c3cccc(-c4cccc(-c5ccc6c(c5)CN(C(=O)[C@@H](N)CC(=O)O)CC6)c4Cl)c3Cl)cc2C1` [Compound J-1], 10 to 100 nM.
On the same count and under the same terms, with `Clc1c(-c2ccc3c(c2)CCNC3)cccc1-c1cccc(-c2ccc3c(c2)CCN(c2ncccn2)C3)c1Cl` [Compound K-1] the figure was 1000 to 10000 nM.
